Reference: PMC5693942 (Scientific Reports, 2017)
In brackets after ≈: the same amount, converted by molar mass. Where two headings read alike, the source gives them in different places. Each block holds one molecule with its values, some of them ahead of it.

Key:
[1] = Activated sludge simulating microcosms (degradation of FL, formation of NFL); type: physicochemical
Procedure: Activated sludge microcosm experiments were conducted in the dark and aerobic conditions. Three microcosm bioreactors were investigated in duplicate. They were filled with 2 L of fresh activated sludge collected from a local wastewater treatment plant. […] Dark conditions were simulated by covering up the flask with foil. Aerobic conditions were obtained using air from BOC air cylinder and a thorough mixing was maintained using magnetic stirrers. The experiment was 24 hours long. […] Collected samples were subsequently frozen until their analysis to prevent degradation of compounds.
The compounds studied are characterized as having low volatility and therefore volatilization was not considered as a potential removal pathway in studied microcosms. Photodegradation was also not considered (not relevant) under tested activated sludge conditions. Therefore the two important degradation mechanisms to consider were biodegradation and sorption to sludge. […] However, in this study, sorption equilibrium was assumed and therefore sorption could be considered negligible. This is because sorption is assumed to be fast when compared to biological degradation.
Several reports utilized pseudo-first-order kinetics for degradation of micropollutants in activated sludge reactors[48]–[50]. […] Pseudo-first order biodegradation rate k1 [L g^−1h^−1]

[2] = River water simulating microcosms (degradation of FL)
Tetrahymena thermophila = experiment: microbe, parasite or virus in culture; type: cell-based
Procedure: The tests were performed in accordance with the protocols provided by the manufacturer. […] The tests were carried out in disposable spectrophotometric cells of 1 cm path-length, to enable the measurement of the optical density (OD) at 440 nm. […] This change in OD over the time period is used to quantify the degree of inhibition and subsequent calculation of the EC50. Each concentration was repeated in duplicate.

Daphnia magna = Daphnia magna acute 48 h immobilization assay (Daphtoxkit); type: in vivo; details: for Average effect (N immobile, 5 daphnids per replicate): 48 h;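 on Average effect (N immobile, 5 daphnids per replicate): test concentrations in mg per L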
Procedure: Six concentration levels (5 concentrations plus control, four replicate beakers for each concentrations, five individual for each beaker) were tested. […] Each experiment was repeated in triplicate.

[3] = after FL; ref [3]; cited from earlier work

EF ([1]; 10 µg L-1 microcosm, time 0): 0.784
EF ([1]; 10 µg L-1 microcosm, time 0.5): 0.663
EF ([1]; 10 µg L-1 microcosm, time 1): 0.000
EF ([1]; 10 µg L-1 microcosm, time 1.5): 0.887
EF ([1]; 10 µg L-1 microcosm, time 2): 0.750
EF ([1]; 10 µg L-1 microcosm, time 3): 0.839
EF ([1]; 10 µg L-1 microcosm, time 5): 0.810
EF ([1]; 10 µg L-1 microcosm, time 8): 0.856
EF ([1]; 10 µg L-1 microcosm, time 12): 0.749
EF ([1]; 10 µg L-1 microcosm, time 24): 0.752
enantiomeric fraction (EF) ([1]; 10 µg L^−1 reactor, after further slow removal): > 0.7
EF ([1]; 100 µg L-1 microcosm, time 0): 0.833
EF ([1]; 100 µg L-1 microcosm, time 0.5): 0.826
EF ([1]; 100 µg L-1 microcosm, time 1): 0.858
EF ([1]; 100 µg L-1 microcosm, time 1.5): 0.872
EF ([1]; 100 µg L-1 microcosm, time 2): 0.848
EF ([1]; 100 µg L-1 microcosm, time 3): 0.852
EF ([1]; 100 µg L-1 microcosm, time 5): 0.851
EF ([1]; 100 µg L-1 microcosm, time 8): 0.843
EF ([1]; 100 µg L-1 microcosm, time 12): 0.864
EF ([1]; 100 µg L-1 microcosm, time 24): 0.794
enantiomeric fraction (EF) ([1]; 100 µg L^−1 microcosm): > 0.7
EF ([2]; DAR (dark abiotic), day 5): 0.000
EF ([2]; DBR (dark biotic), day 1): 0.000
EF ([2]; DBR (dark biotic), day 3): 0.333
EF ([2]; DBR (dark biotic), day 5): 0.417
EF ([2]; LAR (light abiotic), day 2): 0.000
EF ([2]; LAR (light abiotic), day 3): 0.358
EF ([2]; LAR (light abiotic), day 4): 0.250
EF ([2]; LAR (light abiotic), day 5): 0.000
EF ([2]; LAR (light abiotic), day 8): 0.000
EF ([2]; LAR (light abiotic), day 9): 0.000
EF ([2]; LAR (light abiotic), day 10): 0.000
EF ([2]; LAR (light abiotic), day 11): 0.000
EF ([2]; LAR (light abiotic), day 12): 0.225
EF ([2]; LAR (light abiotic), day 15): 0.000
EF ([2]; LAR (light abiotic), day 16): 0.225
EF ([2]; LBR (light biotic), day 1): 0.000
EF ([2]; LBR (light biotic), day 2): 0.000
EF ([2]; LBR (light biotic), day 3): 0.292
EF ([2]; LBR (light biotic), day 5): 0.292
SMILES: NCCC(Oc1ccc(C(F)(F)F)cc1)c1ccccc1 (stereo not shown) [NFL, norfluoxetine]

Concentration ([1]; 10 µg L-1 microcosm, time 0): 0.127 ± 0.015 ng/mL
Concentration ([1]; 10 µg L-1 microcosm, time 0.5): 0.057 ± 0.006 ng/mL
Concentration ([1]; 10 µg L-1 microcosm, time 1.5): 0.010 ± 0.000 ng/mL
Concentration ([1]; 10 µg L-1 microcosm, time 2): 0.151 ± 0.068 ng/mL
Concentration ([1]; 10 µg L-1 microcosm, time 3): 0.222 ± 0.038 ng/mL
Concentration ([1]; 10 µg L-1 microcosm, time 5): 0.384 ± 0.053 ng/mL
Concentration ([1]; 10 µg L-1 microcosm, time 8): 0.315 ± 0.016 ng/mL
Concentration ([1]; 10 µg L-1 microcosm, time 12): 0.562 ± 0.219 ng/mL
Concentration ([1]; 10 µg L-1 microcosm, time 24): 0.510 ± 0.059 ng/mL
Concentration ([1]; 100 µg L-1 microcosm, time 0): 0.553 ± 0.146 ng/mL
Concentration ([1]; 100 µg L-1 microcosm, time 0.5): 0.538 ± 0.149 ng/mL
Concentration ([1]; 100 µg L-1 microcosm, time 1): 0.737 ± 0.154 ng/mL
Concentration ([1]; 100 µg L-1 microcosm, time 1.5): 0.981 ± 0.052 ng/mL
Concentration ([1]; 100 µg L-1 microcosm, time 2): 1.890 ± 0.622 ng/mL
Concentration ([1]; 100 µg L-1 microcosm, time 3): 2.515 ± 1.049 ng/mL
Concentration ([1]; 100 µg L-1 microcosm, time 5): 3.535 ± 1.300 ng/mL
Concentration ([1]; 100 µg L-1 microcosm, time 8): 3.844 ± 1.117 ng/mL
Concentration ([1]; 100 µg L-1 microcosm, time 12): 5.346 ± 0.464 ng/mL
Concentration ([1]; 100 µg L-1 microcosm, time 24): 5.046 ± 0.415 ng/mL
Concentration ([2]; DBR (dark biotic), day 3): 0.001 ± 0.000 ng/mL
Concentration ([2]; DBR (dark biotic), day 5): 0.001 ± 0.000 ng/mL
Concentration ([2]; LAR (light abiotic), day 3): 0.002 ± 0.001 ng/mL
Concentration ([2]; LAR (light abiotic), day 4): 0.001 ± 0.000 ng/mL
Concentration ([2]; LAR (light abiotic), day 12): 0.002 ± 0.001 ng/mL
Concentration ([2]; LAR (light abiotic), day 16): 0.001 ± 0.000 ng/mL
Concentration ([2]; LBR (light biotic), day 3): 0.001 ± 0.000 ng/mL
Concentration ([2]; LBR (light biotic), day 5): 0.001 ± 0.000 ng/mL
SMILES: NCC[C@H](Oc1ccc(C(F)(F)F)cc1)c1ccccc1 [(S)-NFL]
times more toxic than (S)-FL (Tetrahymena thermophila; Tetrahymena thermophila): 10 ×
EC50 (Tetrahymena thermophila; Tetrahymena thermophila, T. thermophila, this study, read-out: EC50_24h -growth): 3.8 µg/mL (≈ 12.9 µM)
EC50 (Tetrahymena thermophila; Tetrahymena thermophila, definitive test, read-out: 24hEC50): 4.48 µg/mL (≈ 15.2 µM)
EC50 (Tetrahymena thermophila; Tetrahymena thermophila, range test, read-out: 24hEC50): 1.98 µg/mL (≈ 6.71 µM)
% I (percentage inhibition) (Tetrahymena thermophila; definitive test, conc. 0.093): 7.356%
% I (percentage inhibition) (Tetrahymena thermophila; definitive test, conc. 0.279): 12.473%
% I (percentage inhibition) (Tetrahymena thermophila; definitive test, conc. 9.302): 28.891%
% I (percentage inhibition) (Tetrahymena thermophila; definitive test, conc. 15.352): 47.228%
% I (percentage inhibition) (Tetrahymena thermophila; definitive test, conc. 24.562): 80.171%
% I (percentage inhibition) (Tetrahymena thermophila; definitive test, conc. 50.660): 101.066%
% I (percentage inhibition) (Tetrahymena thermophila; definitive test, conc. 76.758): 104.371%
% I (percentage inhibition) (Tetrahymena thermophila; range test, conc. 0.005): 34.102%
% I (percentage inhibition) (Tetrahymena thermophila; range test, conc. 0.050): 7.524%
% I (percentage inhibition) (Tetrahymena thermophila; range test, conc. 0.500): 10.316%
% I (percentage inhibition) (Tetrahymena thermophila; range test, conc. 5.000): 39.684%
% I (percentage inhibition) (Tetrahymena thermophila; range test, conc. 50.000): 105.825%
Average effect (N immobile, 5 daphnids per replicate) (Daphnia magna; concentration 0.5): 0.25
Average effect (N immobile, 5 daphnids per replicate) (Daphnia magna; concentration 1.5): 1
Average effect (N immobile, 5 daphnids per replicate) (Daphnia magna; concentration 5): 4
Average effect (N immobile, 5 daphnids per replicate) (Daphnia magna; concentration 16): 5
Average effect (N immobile, 5 daphnids per replicate) (Daphnia magna; concentration 50): 5
EC50 (Daphnia magna; Daphnia magna, D. magna, this study, read-out: EC50_48h -immobilization): 2.8 µg/mL (≈ 9.48 µM)

SMILES: O=C(O)CNC(=O)c1ccccc1 [hippuric acid]
excreted in the urine as this species [3]: > 20%
